In patent publication US20060019890A1, “Method for treating cardiac remodeling following myocardial injury” (priority 2004, published 2006):

Assays:
acute myocardial injury [1] = test: Gene expression in the heart by RT-PCR in L-NAME/AngII acute myocardial injury model; assay type: in vivo, rat; settings: stimulated by L-NAME plus angiotensin II
Procedure: In a related study, a gene microassay profile of rat heart tissue was conducted. Fibrotic and extracellular matrix associated genes were stimulated in vivo by L-NAME plus angiotensin II.
(§1) In a related study, an in vivo model for acute myocardial injury was used to explore the effects of BNP. Male Sprague Dawley rats ranging in weight from 225 to 250 gm were utilized. Acute myocardial injury was induced by administration of Nω-nitro-L-arginine methyl ester (L-NAME, 40 mg/kg/day)salt (1% NaCl) plus angiotensin II (AngII, 0.5 mg/kg/day) in the rats. The L-NAME was administered in drinking water from day 1 to day 14. Angiotensin II was continuously infused subcutaneously with an osmotic pump from day 11 to day 14. Rat BNP ([…]) was intravenously infused through an external infusion pump from day 10 to day 14.
(§2) Systolic blood pressure, plasma level of aldosterone, cardiac function heart/body weight ration and gene expression in the heart were analyzed. Systolic blood pressure was monitored via tail cuff technique with an IITC blood pressure recording system. Cardiac function was monitored via a Millar ARIA Pressure Volume Conductance System with an 1.4 F catheter. Gene expression as referenced above with results provided in FIG. 12 were monitored by RT-PCR with an ABI Prism™ 7700 sequence detection system.

[2] = tested on: human cardiac fibroblasts; test: cDNA microarray gene expression profiling of TGFβ- and/or BNP-treated cardiac fibroblasts
Procedure: Two lots of primary human cardiac fibroblasts, derived from a person (lot 1) and a person (lot 2), were provided by Cambrex Bio Science (Walkersville, Md.). Cells stained positive for α-smooth muscle actin and vimenfin antibodies corroborating their identity as cardiac fibroblasts and myofibroblasts. Both lots were used for the real-time RT-PCR studies; lot 1 was used for the microarray analysis. Cells at passage 3-5 were cultured in FGM containing 15% FBS. At confluence, cells were split and cultured in 6-well plates for 24 h.
Gene expression profiles were determined from cDNA microarrays containing 8,600 elements derived from clones isolated from normalized cDNA libraries or purchased from ResGen (Invitrogen Life Technologies, Carlsbad, Calif.). DNA for spotting was generated by PCR amplification using 5′amino-modified primers (BD Biosciences Clontech, Palo Alto, Calif.) derived from flanking vector sequences. Amplified DNA was purified in a 96-well format using Qiagen's Qiaquick columns (Valencia, Calif.) according to the manufacturer's recommendations. Samples were eluted in Milli-Q purified water, dried to completion and resuspended in 7 μl of 3×SSC. A fluorescent assay using PicoGreen (Molecular Probes, Eugene, Oreg.) was randomly performed on 12% of the PCR products to determine the average yield after purification; yields were ˜1.5 μg of DNA which corresponds to a concentration of 214 μg/ml. Purified DNA was arrayed from 384-well microtiter plates onto lysine-coated glass slides using an OmniGrid II microarrayer (GeneMachines, San Carlos, Calif.). After printing, DNA was cross-linked to the glass with 65 mjoules UV irradiation and reactive amines were blocked by treatment with succinic anhydride.
Total RNA was extracted from cells using Qiagen's RNeasy kit; two wells from a 6 well plate were pooled to yield a total of 4×10^5 cells per treatment. RNA was amplified using a modified Eberwine protocol^5 that incorporated a polyA tail into the amplified RNA. Fluorescently-labeled cDNA probes were generated by reverse transcription of 4 μg of RNA with SuperScript II (Invitrogen Life Technologies, Carlsbad, Calif.) using anchored dT primers in the presence of Cy3 or Cy5 dUTP (Amersham, Piscataway, N.J.). Labeled cDNA probe pairs were precipitated with ethanol and purified using Qiaquick columns. Twenty μg each of poly(A) DNA, yeast tRNA, and human Cot1 DNA (Applied Genetics, Melbourne, Fla.) was added to the eluant. The samples were dried to completion and resuspended in 12.5 μl 3×SSC, 0.1% SDS. Probes were heated to 95° C. for 5 minutes, applied to the arrays under a 22 mm^2 cover slip and allowed to hybridize for at least 16 h at 65° C. The arrays were washed at 55° C. for 10 minutes in 2×SSC, 0.1% SDS, followed by two washes at room temperature in 1×SSC (10 min) and 0.2×SSC (15 min). Hybridization of each fluorophore was quantified using an Axon GenePix 4000A scanner.
Differential expression values were expressed as the ratio of the median of background-subtracted fluorescent intensity of the experimental RNA to the median of background-subtracted fluorescent intensity of the control RNA. For ratios greater than or equal to 1.0, the ratio was expressed as a positive value. For ratios less than 1.0, the ratio was expressed as the negative reciprocal (i.e., a ratio of 0.5=−2.0). Median ratios were normalized to 1.0 using two pools of 3000 randomly chosen cDNAs in each pool. Six replicates of each of the two pools were printed in 4 evenly distributed blocks of the array. Expression data was rejected if neither channel produced a signal of at least 2.0-fold over background. Differential expression ratios were determined as the mean of the two values from dye-swapped duplicates.

[3] = tested on: human cardiac fibroblasts; test: Western blot analysis of Collagen 1 and Fibronectin protein; assay type: cell-based; settings: 48 h
Procedure: (§3) Lysis was induced with 0.2 ml of buffer containing 20 mM Tris-HCL, pH 7.9, 137 mM NaCl, 1% Triton X-100, 5 mM EDTA, 10 mM NaF, 1 mM β-glycerophosphate, and protease inhibitor cocktail. The protein concentration of each lysate was measured using coomassie protein reagent from PIERCE. Twenty μg of protein from each sample was loaded and electrophoresed on 4-12% gradient polyacrylamide gels and electrophoretically transferred to nitrocellulose membranes (Invitrogen, San Diego, Calif.). The membranes were incubated with rabbit anti-human Collagen 1 antibody (Cortex Biochem, San Leandro, Calif.), HRP-conjugated anti-human Fibronectin antibody, or goat anti-Actin antibody (Santa Cruz Biotehnology, Santa Cruz, Calif.) in TBST buffer containing 20 mM Tris-HCl, pH 7.5, 150 mM NaCl, 0.1% Tween-20, and 5% nonfat dried milk at 4° C. for ˜16 h. For ERK phosphorylation, cells were treated with 0.5 μmol/L BNP in the presence of 1 μmol/L KT5823 or 10 μmol/L U0126 for 15 min; the membranes were incubated with rabbit anti-human phospho-ERK ½ antibody or rabbit anti-human ERK ½ antibody (Cell Signaling, Beverly, Mass.). For secondary antibody detection, membranes were incubated with HRP-conjugated anti-rabbit antibody or anti-goat antibody at room temperature for 1 h and washed 3 times with TBST buffer. The blots were soaked in ECL Plus reagent for 5 min and exposed to KODAK x-ray film. Signals were identified and quantified using a Typhoon Scanner and Densitometer from Amersham Biosciences (Piscataway, N.J.). Data was analyzed by ANOVA using the Newman-Keuls test to assess significance. Results cGMP Production in Cardiac Fibroblasts

[4] = tested on: human cardiac fibroblasts; test: Real-time RT-PCR gene expression in cardiac fibroblasts; assay type: cell-based; settings: for ACTA2 expression level relative to control / CTGF expression level relative to control / Collagen 1 expression level relative to control / Fibronectin expression level relative to control / IL6 expression level relative to control / IL11 expression level relative to control / PTGS2/COX-2 expression level relative to control / SERPINE1/PAI-1 expression level relative to control / TIMP3 expression level relative to control: normalized to 18s RNA
Procedure: Real-time RT-PCR^18 was performed in a two-step manner. cDNA synthesis and real-time detection were carried out in a PTC-100™ Thermal Cycler (MJ Research Inc, Waltham, Mass.) and an ABI Prism™ 7700 Sequence Detection System (Applied Biosystems, Foster City, Calif.), respectively. Random hexamers (Qiagen, Valencia, Calif.) were used to generate cDNA from 200 ng RNA as described in Applied Biosystems User Bulletin #2. TaqMan™ PCR Core Reagent Kit or TaqMan™ Universal PCR Master Mix (Applied Biosystems) were used in subsequent PCR reactions according to the manufacturer's protocols. Relative quantitation of gene expression was performed using the relative standard curve method. All real-time RT-PCR reactions were performed in triplicate.
Sequence specific primers and probes were designed using Primer Express Version 2 software (Applied Biosystems). Sequences of primers and probes can be found in Table 1 below. Expression levels were normalized to 18S rRNA. The selection of 18S rRNA as an endogenous control was based on an evaluation of the ΔCT levels (Applied Biosystems document # 4308134C) of 6 “housekeeping” genes: Cyclophilin A, 18S, GAPDH, β-actin, β-Glucuronidase, and Hypoxanthine Guanine Phosphoribosyl Transferase.

[5] = Plasma level of aldosterone in L-NAME/AngII acute myocardial injury model; assay type: in vivo; settings: L-NAME/AngII rats, rat BNP i.v. infusion day 10 to day 14
Procedure: as §1, §2

[6] = Degradation of added BNP in cardiac fibroblast culture (immunoreactive assays and cGMP stimulation cell bioassays); assay type: in vitro ADME; settings: human, primary human cardiac fibroblasts in culture, within 24 h, read-out: added BNP metabolized
Procedure: Two lots of primary human cardiac fibroblasts, derived from a person (lot 1) and a person (lot 2), were provided by Cambrex Bio Science (Walkersville, Md.). […] Cells at passage 3-5 were cultured in FGM containing 15% FBS. At confluence, cells were split and cultured in 6-well plates for 24 h.

ERK = test: Western analysis of ERK phosphorylation; assay type: cell-based, human; settings: BNP 0.5 μmol/L, 15 min
Procedure: as §3

acute myocardial injury [7] = test: Systolic blood pressure (tail cuff) in L-NAME/AngII acute myocardial injury model; assay type: in vivo; settings: rat BNP i.v. infusion day 10 to day 14
Procedure: as §1, §2

acute myocardial injury [8] = test: Cardiac function (Millar pressure volume conductance system) in L-NAME/AngII acute myocardial injury model; assay type: in vivo, rat; settings: L-NAME/AngII rats
Procedure: as §1, §2

acute myocardial injury [9] = test: Heart/body weight ratio in L-NAME/AngII acute myocardial injury model; assay type: in vivo; settings: L-NAME/AngII rats, rat BNP i.v. infusion day 10 to day 14
Procedure: as §1, §2

[10] = TGFβ-stimulated cells, microarray
[11] = rat BNP i.v. infusion day 10 to day 14

Question: What does the source list for `CC[C@H](C)[C@@H]1NC(=O)[C@H](CCCNC(=N)N)NC(=O)[C@H](CC(=O)O)NC(=O)[C@H](CCSC)NC(=O)[C@H](CCCCN)NC(=O)[C@H](CCCNC(=N)N)NC(=O)CNC(=O)[C@H](Cc2ccccc2)NC(=O)[C@@H](NC(=O)CNC(=O)[C@H](CO)NC(=O)CNC(=O)[C@H](CCC(N)=O)NC(=O)[C@@H](NC(=O)[C@H](CCSC)NC(=O)[C@H](CCCCN)NC(=O)[C@@H]2CCCN2C(=O)[C@@H](N)CO)C(C)C)CSSC[C@@H](C(=O)N[C@@H](CCCCN)C(=O)N[C@H](C(=O)N[C@@H](CC(C)C)C(=O)N[C@@H](CCCNC(=N)N)C(=O)N[C@@H](CCCNC(=N)N)C(=O)N[C@@H](Cc2c[nH]cn2)C(=O)O)C(C)C)NC(=O)CNC(=O)[C@H](CC(C)C)NC(=O)CNC(=O)[C@H](CO)NC(=O)[C@H](CO)NC(=O)[C@H](CO)NC(=O)[C@H](CO)NC1=O` [BNP, brain natriuretic peptide]?
Answer: mRNA expression for collagen I in rat heart (acute myocardial injury [1]): markedly reduced; mRNA expression for collagen III in rat heart (acute myocardial injury [1]): markedly reduced; mRNA expression for fibronectin in rat heart (acute myocardial injury [1]): markedly reduced; TGFβ-regulated gene expression events opposed ([2]; 24 h): ~88%; TGFβ-regulated gene expression events opposed ([2]; 48 h): ~85%; effect on TGFβ-induction of PTGS2 (COX2), TNFAIP6 and TNFSF4 [2, 10]: reversed; effect on TGFβ-regulated cell proliferation genes (PDGFA, IGFBP10, IGF1, PTHLH, CDC25B, CUL5) [2, 10]: opposed; effect on fibrosis and ECM gene cluster up-regulated by TGFβ [2, 10]: down-regulated; effect on gene expression in unstimulated human cardiac fibroblasts ([2]; microarray, 24 and 48 h): no significant effects; effect on TGFβ-induced Fibronectin protein expression [3]: inhibited; inhibition of TGFβ-stimulated Collagen 1 protein synthesis [3]: ~75%; effect on TGFβ induction of Collagen 1 mRNA levels ([4]; 6, 24 and 48 h): blocked; ACTA2 expression level relative to control ([4]; 6 h, lot 1): 0.8 ± 0.12; CTGF expression level relative to control ([4]; 6 h, lot 1): 0.9 ± 0.24; Collagen 1 expression level relative to control ([4]; 6 h, lot 1): 1.0 ± 0.05; Fibronectin expression level relative to control ([4]; 6 h, lot 1): 0.9 ± 0.19; IL6 expression level relative to control ([4]; 6 h, lot 1): 0.9 ± 0.02; IL11 expression level relative to control ([4]; 6 h, lot 1): 1.1 ± 0.04; PTGS2/COX-2 expression level relative to control ([4]; 6 h, lot 1): 1.2 ± 0.22; SERPINE1/PAI-1 expression level relative to control ([4]; 6 h, lot 1): 0.7 ± 0.08; TIMP3 expression level relative to control ([4]; 6 h, lot 1): 0.9 ± 0.11; ACTA2 expression level relative to control ([4]; 24 h, lot 1): 0.9 ± 0.11; CTGF expression level relative to control ([4]; 24 h, lot 1): 1.0 ± 0.29; Collagen 1 expression level relative to control ([4]; 24 h, lot 1): 1.1 ± 0.13; Fibronectin expression level relative to control ([4]; 24 h, lot 1): 1.0 ± 0.10; IL6 expression level relative to control ([4]; 24 h, lot 1): 0.9 ± 0.21; PTGS2/COX-2 expression level relative to control ([4]; 24 h, lot 1): 1.2 ± 0.38; SERPINE1/PAI-1 expression level relative to control ([4]; 24 h, lot 1): 0.7 ± 0.01; TIMP3 expression level relative to control ([4]; 24 h, lot 1): 1.0 ± 0.12; ACTA2 expression level relative to control ([4]; 24 h, lot 2): 0.9 ± 0.25; Fibronectin expression level relative to control ([4]; 24 h, lot 2): 0.9 ± 0.24; IL6 expression level relative to control ([4]; 24 h, lot 2): 0.9 ± 0.07; IL11 expression level relative to control ([4]; 24 h, lot 2): 1.0 ± 0.05; SERPINE1/PAI-1 expression level relative to control ([4]; 24 h, lot 2): 0.7 ± 0.11; TIMP3 expression level relative to control ([4]; 24 h, lot 2): 0.7 ± 0.09; effect on TGFβ-induced Fibronectin mRNA expression ([4]; 48 h): inhibited; ACTA2 expression level relative to control ([4]; 48 h, lot 1): 1.0 ± 0.03; Collagen 1 expression level relative to control ([4]; 48 h, lot 1): 1.2 ± 0.03; Fibronectin expression level relative to control ([4]; 48 h, lot 1): 1.1 ± 0.04; IL6 expression level relative to control ([4]; 48 h, lot 1): 0.9 ± 0.03; IL11 expression level relative to control ([4]; 48 h, lot 1): 0.7 ± 0.10; PTGS2/COX-2 expression level relative to control ([4]; 48 h, lot 1): 1.0 ± 0.12; SERPINE1/PAI-1 expression level relative to control ([4]; 48 h, lot 1): 0.9 ± 0.00; TIMP3 expression level relative to control ([4]; 48 h, lot 1): 0.9 ± 0.00; ACTA2 expression level relative to control ([4]; 48 h, lot 2): 0.7 ± 0.11; Collagen 1 expression level relative to control ([4]; 48 h, lot 2): 1.0 ± 0.01; Fibronectin expression level relative to control ([4]; 48 h, lot 2): 1.0 ± 0.11; IL6 expression level relative to control ([4]; 48 h, lot 2): 0.9 ± 0.06; IL11 expression level relative to control ([4]; 48 h, lot 2): 0.8 ± 0.09; PTGS2/COX-2 expression level relative to control ([4]; 48 h, lot 2): 1.0 ± 0.06; SERPINE1/PAI-1 expression level relative to control ([4]; 48 h, lot 2): 0.8 ± 0.03; TIMP3 expression level relative to control ([4]; 48 h, lot 2): 0.6 ± 0.00; plasma aldosterone [5]: 6.6 ± 0.16 ng/mL; metabolised at 24 h [6]: 50%; ERK phosphorylation (ERK): activates ERK; effect on systolic blood pressure raised by L-NAME+AngII (acute myocardial injury [7]): no effect; effect on cardiac output (acute myocardial injury [8]): increases; effect on heart rate (acute myocardial injury [8]): no effect; effect on maximum dP/dt (acute myocardial injury [8]): increased; effect on minimum dP/dt (acute myocardial injury [8]): increased; arterial elastance (acute myocardial injury [8]; [11]): 42.6±5.1 mmHg/ul; diastolic volume (acute myocardial injury [8]; [11]): 22.4 ± 1.1 µL; ejection fraction (acute myocardial injury [8]; [11]): 20.4±2.4%; stroke volume (acute myocardial injury [8]; [11]): 4.74 ± 0.73 µL; stroke work (acute myocardial injury [8]; [11]): 531.5±99.1 mmH*ul; heart/body weigh ratio (acute myocardial injury [9]): 0.0029±0.001
